Results from ChEMBL document CHEMBL1131148, “Synthesis and modeling studies of a potent conformationally rigid muscarinic agonist: 1-azabicyclo[2.2.1]heptanespirofuranone” (J Med Chem, 1998).

Legend:
Rattus norvegicus = organism: Rattus norvegicus; assay: Stimulation of phosphatidyl inositol(PI) hydrolysis as compared to that of carbachol, was determined in rat hippocampal slices; assay type: functional, Hippocampus
[1] = target: Muscarinic acetylcholine receptor; assay: Binding affinity against Muscarinic acetylcholine receptor using [3H]-OXO-M as the radioligand.; assay type: protein assay, Rattus norvegicus

SMILES | Intrinsic activity (Rattus norvegicus) [%] | Ki [1] [nM]
CC1O[C@@]2(CC1=O)CN1CCC2CC1 (stereo not given in full) | 9 | –
CCC[C@H]1O[C@@]2(CC1=O)CN1CCC2C1 (stereo not given in full) | 0 | 2
CCC[C@@H]1O[C@@]2(CC1=O)CN1CCC2C1 (stereo not given in full) | 0 | 2
CC1OC2(CCN(C)CC2)CC1=O (stereo not given) | 51 | 6.7
C[C@H]1OCC2(CN3CCC2C3)O1 (stereo not given in full) | 75 | 14
C[N+](C)(C)CCOC(N)=O.[Cl-] [CARBACHOL] | 100 | –
CN1O[C@@]2(CC1=O)CN1CCC2C1 (stereo not given in full) | 22.6 | 4
CC[C@H]1O[C@@]2(CC1=O)CN1CCC2C1 (stereo not given in full) | 39 | 3.7
C[C@@H]1O[C@@]2(CC1=O)CN1CCC2C1 (stereo not given in full) | 81 | 0.8
Cc1noc(C2CN3CCC2C3)n1 (stereo not given) | 106 | 0.2
CC[C@@H]1O[C@@]2(CC1=O)CN1CCC2C1 (stereo not given in full) | 47 | 0.4
